In US8846951B2 (AbbVie Inc., priority 2009, dated 2014):
Where two headings read alike, the source gives them in different places.

What was measured:
5HT2C receptors = target: T1, 5HT2C receptors (Homo sapiens, UniProt P28335); experiment: Human 5-HT2C functional high throughput screening assay in CHO-K1 cells (calcium flux); type: cell-based; design: expressed in transfected cells; host or cells: CHO-K1 cells; settings: for Emax: CHO-K1, 5-HT2C, maximum functional response as percentage relative to the effect of serotonin; for EC50: CHO-K1 cells, calcium flux
T1 sequence (P28335 33-458): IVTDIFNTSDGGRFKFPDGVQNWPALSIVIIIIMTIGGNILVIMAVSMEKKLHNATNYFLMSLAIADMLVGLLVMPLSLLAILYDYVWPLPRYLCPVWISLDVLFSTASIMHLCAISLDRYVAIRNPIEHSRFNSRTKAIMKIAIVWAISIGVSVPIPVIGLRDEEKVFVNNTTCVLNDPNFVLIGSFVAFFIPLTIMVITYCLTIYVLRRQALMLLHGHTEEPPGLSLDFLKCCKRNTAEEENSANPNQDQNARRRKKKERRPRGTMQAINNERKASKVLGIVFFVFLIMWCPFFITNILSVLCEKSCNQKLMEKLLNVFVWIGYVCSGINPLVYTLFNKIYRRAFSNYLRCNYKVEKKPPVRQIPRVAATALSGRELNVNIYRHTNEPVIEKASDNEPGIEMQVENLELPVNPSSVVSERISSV
Procedure: (§1) (iii) Human 5-HT2C and 5-HT2B Functional High Throughput Screening Assays in CHO-K1 Cells
(§2) CHO-K1 cells over-expressing 5HT2C or 5HT2B receptors were grown in 1272 cm^2 flasks to 70-80% confluency in UltraCHO media (Lonza, Walkersville, Md.) supplemented with 1% dialyzed fetal bovine serum (FBS), 250 μg/mL zeocin, 100 U/mL penicillin and 100 μg/mL streptomycin, and 400 μg/mL geneticin. The cells were dissociated from the flasks using 0.05% trypsin, resuspended in Recovery™ cell culture freezing medium (Invitrogen, Carlsbad, Calif.) and stored in liquid nitrogen until use. The calcium flux experiments were done using frozen cells. The cells were diluted in media containing 1% dialyzed FBS and 100 U/mL penicillin and 100 μg/mL streptomycin and plated into 384-well poly-D-Lysine coated plates (15,000 cells/well). Then the plates were incubated overnight in a cell incubator at 37° C., 5% CO2. On the next day, the growth media was replaced with media without FBS and further incubated overnight. On day three, the changes in intracellular Ca^2+ were determined using calcium sensitive fluorescent dye, Ca4 (MDS Analytical Technologies, Sunnyvale, Calif.) by loading 15 μL of diluted dye in Hank's Balanced Salt Solution and 20 mM Hepes buffer (pH 7.4) with final concentration of 2.5 mM probenecid into the cells containing media. Then the cells were incubated at room temperature for 60 minutes in dark.
(§3) After incubation, the cell plates were transferred to FLIPR™ (MDS) and their fluorescence measurements were read at an excitation wavelength of 480 nm and an emission wavelength of 530 nm at 25° C. The baseline fluorescence was measured for the first 10 seconds and then 15 μL of 4× concentration of serotonin/test compound was added to the cells. The fluorescence intensity was captured every second for the first 1 minute followed by every 5 seconds for an additional 2 minutes. The increase in fluorescent response by a test compound was normalized to the response of serotonin and used to determine agonist activity. The concentration response of compounds was done from a starting concentration of 10 μM, 1:10 dilution across 6 wells with a final dimethyl sulfoxide concentration of 0.2% and was fitted using a 4-parameter logistic equation. The concentration at which a compound exerts half its maximal effect was named as ‘effective concentration 50’ or ‘EC50’. Emax is the maximum functional response or efficacy expressed as a percentage relative to the effect of serotonin.

5HT2B receptors = target: T2, 5HT2B receptors (Homo sapiens, UniProt P41595); experiment: Human 5-HT2B functional high throughput screening assay in CHO-K1 cells (calcium flux); type: cell-based; settings: for EC50: CHO-K1 cells, calcium flux
T2 construct: expressed in transfected cells; host or cells: CHO-K1 cells
Procedure: as §1, §2, §3

[1] = 5-HT2C agonist activity, read-out: EC50
[2] = 5-HT2B agonist activity, read-out: EC50
[3] = 5-HT2B, maximum functional response as percentage relative to the effect of serotonin

T2 sequence (P41595 whole entry): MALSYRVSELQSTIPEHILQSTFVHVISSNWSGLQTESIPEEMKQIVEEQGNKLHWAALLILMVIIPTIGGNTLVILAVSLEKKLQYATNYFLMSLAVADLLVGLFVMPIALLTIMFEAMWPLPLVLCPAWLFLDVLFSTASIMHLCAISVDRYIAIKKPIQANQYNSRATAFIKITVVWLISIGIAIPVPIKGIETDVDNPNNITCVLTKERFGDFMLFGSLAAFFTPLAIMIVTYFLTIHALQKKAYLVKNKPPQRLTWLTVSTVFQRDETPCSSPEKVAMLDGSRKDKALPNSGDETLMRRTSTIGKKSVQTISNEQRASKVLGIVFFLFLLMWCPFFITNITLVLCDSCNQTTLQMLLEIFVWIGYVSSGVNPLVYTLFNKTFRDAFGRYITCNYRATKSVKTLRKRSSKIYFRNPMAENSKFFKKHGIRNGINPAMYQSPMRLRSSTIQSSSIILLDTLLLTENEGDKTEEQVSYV

SMILES | Emax (5HT2C receptors) | EC50 (5HT2C receptors; EC50, 5-HT2C agonist activity) | Emax (5HT2B receptors; CHO-K1) | EC50 (5HT2B receptors; EC50, 5-HT2B agonist activity) | EC50 (5HT2C receptors; [1]) | Emax (5HT2C receptors; read-out: Emax) | EC50 (5HT2B receptors; [2]) | Emax (5HT2B receptors; [3])
Fc1ccc2c(c1)OCC[C@H]1CN(Cc3ccccc3)C[C@H]21 (relative stereo) [Example 107, Trans-2-benzyl-8-fluoro-2,3,3a,4,5,10b-hexahydro-1H-[1]benzoxepino[4,5-c]pyrrole] | 110% | 0.09 µM | 15% | 0.7 µM | – | – | – | –
c1ccc(-c2ccc3c(c2)OCC[C@H]2CNC[C@H]32)cc1 (relative stereo) [Example 108, Trans-8-phenyl-2,3,3a,4,5,10b-hexahydro-1H-[1]benzoxepino[4,5-c]pyrrole] | – | – | – | – | 0.2 µM | 110% | > 10 µM | inactive
Fc1ccc2c(c1)OCC[C@H]1CNC[C@H]21 (relative stereo) [Example 109, Trans-8-fluoro-2,3,3a,4,5,10b-hexahydro-1H-[1]benzoxepino[4,5-c]pyrrole] | > 120% | 0.04 µM | 55% | 0.3 µM | – | – | – | –
CN1C[C@H]2CNC(=O)c3c(OC(F)(F)F)cccc3[C@@H]2C1 (relative stereo) [Example 110, Trans-2-methyl-7-(trifluoromethoxy)-1,2,3,3a,4,5-hexahydrobenzo[c]pyrrolo[3,4-e]azepin-6(10bH)-one] | > 120% | – | 15% | 0.9 µM | – | – | – | –
O=S1(=O)NC[C@@H]2CNC[C@H]2c2ccccc21 (relative stereo) [Example 111, Trans-2,3,3a,4,5,10b-hexahydro-1H-pyrrolo[3,4-d][1,2]benzothiazepine 6,6-dioxide] | 100% | – | 20% | – | 6 µM | – | > 10 µM | –
CN1C[C@H]2CNC(=O)c3c(-c4ccccc4)cccc3[C@@H]2C1 (relative stereo) [Example 114, Trans-2-methyl-7-phenyl-1,2,3,3a,4,5-hexahydrobenzo[c]pyrrolo[3,4-e]azepin-6(10bH)-one] | – | – | – | – | 5 µM | 80% | > 10 µM | inactive
O=C1NC[C@@H]2CN(Cc3ccccc3)C[C@H]2c2ccc(O)cc21 (relative stereo) [Example 117, Trans-2-benzyl-8-hydroxy-1,2,3,3a,4,5-hexahydrobenzo[e]pyrrolo[3,4-c]azepin-6(10bH)-one] | – | – | – | – | 0.2 µM | > 120% | > 10 µM | inactive
O=C1NC[C@@H]2CN(Cc3ccccc3)C[C@H]2c2ccc(OCCc3cccc(F)c3)cc21 (relative stereo) [Example 119, Trans-2-benzyl-8-(3-fluorophenethoxy)-1,2,3,3a,4,5-hexahydrobenzo[e]pyrrolo[3,4-c]azepin-6(10bH)-one] | – | – | – | – | 0.1 µM | > 120% | > 10 µM | inactive
O=C1NC[C@@H]2CN(Cc3ccccc3)C[C@H]2c2ccc(OCCc3ccccc3)cc21 (relative stereo) [Example 121, Trans-2-benzyl-8-phenethoxy-1,2,3,3a,4,5-hexahydrobenzo[e]pyrrolo[3,4-c]azepin-6(10bH)-one] | – | – | – | – | 0.2 µM | 120% | > 10 µM | inactive
CN1C[C@H]2CNC(=O)c3cc(C(=O)N4CCCCC4)ccc3[C@@H]2C1 (relative stereo) [Example 122, Trans-2-methyl-8-(piperidine-1-carbonyl)-1,2,3,3a,4,5-hexahydrobenzo[e]pyrrolo[3,4-c]azepin-6(10bH)-one] | – | – | – | – | 6 µM | 100% | > 10 µM | inactive
O=C1NC[C@@H]2CNC[C@H]2c2ccc(OCCc3ccccc3)cc21 (relative stereo) [Example 123, Trans-8-phenethoxy-1,2,3,3a,4,5-hexahydrobenzo[e]pyrrolo[3,4-c]azepin-6(10bH)-one] | 120% | 0.01 µM | – | > 10 µM | – | – | – | inactive
O=C1NC[C@@H]2CNC[C@H]2c2ccc(OCCc3cccc(F)c3)cc21 (relative stereo) [Example 124, Trans-8-(3-fluorophenethoxy)-1,2,3,3a,4,5-hexahydrobenzo[e]pyrrolo[3,4-c]azepin-6(10bH)-one] | – | – | – | – | 0.02 µM | > 120% | > 10 µM | inactive
CNC(=O)c1ccc2c(c1)C(=O)NC[C@@H]1CN(C)C[C@@H]21 (relative stereo) [Example 125, Trans-N,2-dimethyl-6-oxo-1,2,3,3a,4,5,6,10b-octahydrobenzo[e]pyrrolo[3,4-c]azepine-8-carboxamide] | – | – | – | – | 2 µM | 90% | > 10 µM | inactive
CN1C[C@H]2CNC(=O)c3cc(C(=O)NCCc4ccccc4)ccc3[C@@H]2C1 (relative stereo) [Example 126, Trans-2-methyl-6-oxo-N-phenethyl-1,2,3,3a,4,5,6,10b-octahydrobenzo[e]pyrrolo[3,4-c]azepine-8-carboxamide] | – | – | – | – | 6 µM | 60% | > 10 µM | inactive
CN1C[C@H]2CNC(=O)c3cc(C(=O)NCCc4cccc(C(F)(F)F)c4)ccc3[C@@H]2C1 (relative stereo) [Example 127, Trans-2-methyl-6-oxo-N-(3-(trifluoromethyl)phenethyl)-1,2,3,3a,4,5,6,10b-octahydrobenzo[e]pyrrolo[3,4-c]azepine-8-carboxamide] | – | – | – | – | 1 µM | 80% | > 10 µM | inactive
CN1C[C@H]2CNC(=O)c3cc(C(=O)Nc4ccccc4)ccc3[C@@H]2C1 (relative stereo) [Example 128, Trans-2-methyl-6-oxo-N-phenyl-1,2,3,3a,4,5,6,10b-octahydrobenzo[e]pyrrolo[3,4-c]azepine-8-carboxamide] | – | – | – | – | 2 µM | 50% | > 10 µM | inactive
COC(=O)c1ccc2c(c1)C(=O)NC[C@@H]1CN(Cc3ccccc3)C[C@@H]21 (relative stereo) [Example 129, Trans-methyl 2-benzyl-6-oxo-1,2,3,3a,4,5,6,10b-octahydrobenzo[e]pyrrolo[3,4-c]azepine-8-carboxylate] | – | – | – | – | 0.2 µM | > 120% | > 10 µM | inactive
COc1ccc2c(c1)C(=O)NC[C@@H]1CN(Cc3ccccc3)C[C@H]21 (relative stereo) [Example 130, Cis-2-benzyl-8-methoxy-1,2,3,3a,4,5-hexahydrobenzo[e]pyrrolo[3,4-c]azepin-6(10bH)-one] | – | – | – | – | 0.9 µM | 100% | > 10 µM | inactive
COc1ccc(-c2ccc3c(c2)C(=O)NC[C@@H]2CN(C)C[C@@H]32)cc1 (relative stereo) [Example 131, Trans-8-(4-methoxyphenyl)-2-methyl-1,2,3,3a,4,5-hexahydrobenzo[e]pyrrolo[3,4-c]azepin-6(10bH)-one] | – | – | – | – | – | > 120% | > 10 µM | inactive
CN1C[C@H]2CNC(=O)c3cc(-c4cccc(OC(F)(F)F)c4)ccc3[C@@H]2C1 (relative stereo) [Example 132, Trans-2-methyl-8-(3-(trifluoromethoxy)phenyl)-1,2,3,3a,4,5-hexahydrobenzo[e]pyrrolo[3,4-c]azepin-6(10bH)-one] | – | – | – | – | 0.02 µM | > 120% | > 10 µM | inactive
